Measured values reported in publication PMC7415757, “Monocrotaline-induced liver toxicity in rat predicted by a combined in vitro physiologically based kinetic modeling approach” (Archives of Toxicology, 2020).

Columns and labels:
[1] = tested on: primary rat hepatocytes; parameters: method as in Tu et al. ([2013]); conditions: 2 µM, pH 7.4; ref Tu et al. ([2013]); cited from earlier work
[2] = Fraction unbound in rat serum by rapid equilibrium dialysis (RED); format: in vitro ADME; conditions: 37 °C, read-out: fub, in vivo (fraction unbound)
Procedure: The fub,in vivo was determined by rapid equilibrium dialysis (RED) (Waters et al. [2008]). […] The device was sealed with tape and incubated at 37 °C on a shaker at 250 rpm. After incubation for 5 h when the system reached equilibrium (van Liempd et al. [2011]), 50 µl of post-dialysis samples was collected from the serum and buffer chambers into separate eppendorf tubes. Subsequently, 50 µl of rat serum was added to the buffer samples and 50 µl of PBS was added to the serum samples. To precipitate the protein, 300 µl of ice-cold acetonitrile (90% v/v) was added to both tubes. After putting the mixtures on ice for 30 min, the mixtures were centrifuged at 15,000 g for 30 min at 4 °C, and the supernatants were diluted five times in 90% (v/v) acetonitrile and analyzed by LC–MS as described above. The measurements were performed in triplicate.

[3] = Reported blood kinetics after iv [14C] monocrotaline (Estep et al. 1991); format: in vivo; conditions: rat, iv 60 mg/kg bw, from Estep et al. 1991
Procedure: The reported concentration nmol/g is assumed to be equal to nmol/ml or µM. The reported blood concentration is calculated as the sum of the plasma and RBC concentration.

C[C@H]1C(=O)O[C@@H]2CCN3CC=C(COC(=O)[C@](C)(O)[C@]1(C)O)[C@H]23 [Monocrotaline]
overall rate for uptake into primary rat hepatocytes [1]: 14.5 pmol/mg protein/min | fraction unbound at 5 h, 150 µM [2]: 0.53 ± 0.12 | Reported concentration of monocrotaline equivalents, blood (plasma + RBCs) ([3]; 5 min): 257.00 µM | Reported concentration of monocrotaline equivalents, blood (plasma + RBCs) ([3]; 15 min): 195.34 µM | Reported concentration of monocrotaline equivalents, blood (plasma + RBCs) ([3]; 30 min): 167.41 µM | Reported concentration of monocrotaline equivalents, blood (plasma + RBCs) ([3]; 60 min): 149.97 µM | Reported concentration of monocrotaline equivalents, blood (plasma + RBCs) ([3]; 120 min): 134.54 µM | Reported concentration of monocrotaline equivalents, blood (plasma + RBCs) ([3]; 180 min): 121.75 µM | Reported concentration of monocrotaline equivalents, blood (plasma + RBCs) ([3]; 240 min): 116.71 µM | Reported concentration of monocrotaline equivalents, blood (plasma + RBCs) ([3]; 300 min): 92.88 µM | Reported concentration of monocrotaline equivalents, blood (plasma + RBCs) ([3]; 360 min): 97.66 µM | Reported concentration of monocrotaline equivalents, blood (plasma + RBCs) ([3]; 420 min): 92.00 µM
